# Laboratory results: BindingDB's records for doi:10.1021/ml3000879 (2012)
# Target: Dual specificity protein kinase TTK (Homo sapiens) (UniProt P33981)
# Assay: Inhibition of FLAG-tagged Mps1 autophosphorylation in human RERF-LC-AI cells expressing Tet-suppressible promotor after 3 hrs by immunoblotting
row,IC50 [nM],SMILES
1,1800,CCOc1nc(Nc2ccc(C(N)=O)cc2)cc(N)c1C#N

# Target: Dual specificity protein kinase TTK (Homo sapiens) (UniProt P33981)
# Assay: Inhibition of Mps1-mediated p38 MAPK phosphorylation after 90 mins by DELFIA assay
row,SMILES,IC50 [nM]
1,CCOc1nc(C(=O)NCc2ccccc2)cc(N)c1C#N [4-Amino-5-cyano-6-ethoxy-pyridine-2-carboxylic acid benzylamide],529
2,CCOc1nc(C(=O)NCc2ccc(S(C)(=O)=O)cc2)cc(N)c1C#N [4-amino-5-cyano-6-ethoxy-N-[(4-methanesulfonylphenyl)methyl]pyridine-2-carboxamide],568
3,CCOc1nc(NC(=O)Cc2ccccc2)cc(N)c1C#N [N-(4-Amino-5-cyano-6-ethoxypyridin-2-yl)-2-phenylacetamide],4200
4,CCOc1nc(NCCc2ccccc2)cc(N)c1C#N,3970

# Molecules with a lower IC50, results first:
row,IC50 [nM],SMILES
1,37,CCOc1nc(Nc2ccc(C(N)=O)cc2)cc(N)c1C#N
2,228,CCOc1nc(Nc2ccccc2)cc(N)c1C#N
